Measured values published in patent US4440772A, “Acid addition salts of dextrorotatory ergot alkaloids, a process for the preparation thereof as well as their use as medicines” (priority 1978, dated 1984).

How the values were obtained:
[1] = established for known ergot alkaloids; cited from earlier work
[2] = literature comparison; cited from earlier work
[3] = system: smooth muscles of blood vessels; assay: effect on blood pressure drop in rats with cut spinal cord; format: in vivo, rats (variety Wistar); conditions: for long-duration hypertension (effect in words): 4.5 mg/kg of body weight; for vasoconstrictory effect: contraction of smooth muscles of blood vessels
From the text: Rats (variety Wistar) in urethane narcosis were cut their spinal cord in the region of the second cervical vertebra and connected to an artificial breathing apparatus (B. Melsungen). By this intervention the central regulation of blood pressure was eliminated. In so treated animals blood pressure dropped for about 50 mm Hg. The experiment was supposed to show whether the examined substances directly affected the smooth muscles of blood vessels.

heart in situ = assay: effect on heart in situ in rats; format: in vivo; conditions: slow infusion
Experimental: The effect of ergotaminine, ergosinine and ergocrystinine on heart in situ was examined in rats. The thorax of narcotized rats (0.7 ml of 25% urethane solution per 100 g of the body weight, administered subcutaneously) was opened. The heart was placed into a special basket with a balloon, which was connected over a polyethylene cannula to a transducer "Mini Pressure Transducer--Beckmann" and dynograph Beckmann. As the left wall of the ventricle leant against the balloon, the contraction of the ventricle could be recorded. Over a tracheal tube the rats were connected to an artificial breathing apparatus.

[4] = system: spontaneously hypertensive rats; assay: effect on arterial pressure of spontaneously hypertensive rats; format: in vivo, rats (variety Okamoto Aoki F32); conditions: spontaneously hypertensive rats, 50 mcg/kg intraperitoneally
Experimental: For the experiment groups of 10 spontaneously hypertensive rats (variety Okamoto Aoki F32) of both sexes, weighing from 200 to 250 g, were used. The acid addition salts of said dextrorotatory ergot alkaloids were administered intraperitoneally in doses of 50 mcg/kg of body weight and systolic blood pressure was measured on the rats' tails by means of plethysmographic method (K. Okamoto and K. Aoki, Jap. Circulat. J. 27, 1963, 282).

[5] = system: isolated heart of a guinea pig; assay: effect on isolated heart of a guinea pig, modified Langendorff's method; conditions: isolated heart of guinea pig
From the text: The effect of dextrorotatory ergot alkaloids according to the invention on heart in vitro was examined on isolated heart of a guinea pig by the modified Langendorff's method (Zalar et al., Poll. Chim. Farmac. 114, 1975, 146). Alkaloids were infused by an apparatus for slow infusion (B. Melsungen).

[6] = system: alpha-adrenergic receivers of the dilatating pupil muscle; assay: effect on the function of the pupil (mydriatic effect, Polewka's method); format: in vivo; conditions: 5 mg/kg intravenously, mouse
Experimental: The phenomenon of mydriasis induced by ergot alkaloids results from the stimulation of alpha-adrenergic receivers of the dilatating pupil muscle (Z. Votava et al., Arch. int. Pharmacodin. 45, 1958, 114).
The mydriatic effect of dextrorotatory ergot alkaloids administered intravenously was determined with a monocular measuring magnifying glass by Polewka's method (A. R. Turner, Screening Methods in Pharmacology, 1965, p. 174 ff.).
The size of the pupil was measured at first before the administration of the substance and then 15, 30 and 60 minutes after intravenous administration of alkaloids into the mouse tail (dose 5 mg/kg of body weight).

[7] = system: arrhythmias induced by adrenalin; assay: effect on arrhythmia induced by adrenalin; format: in vivo; conditions: guinea pigs, arrhythmias induced by adrenalin
Experimental: For experiments, guinea pigs of both sexes, weighing from 400 to 550 g, were used. The narcotized animals (urethane 1.6 g/kg of body weight, intraperitoneally) were at first intravenously administered adrenalin (0.02 mg/kg) and then dextrorotatory ergot alkaloids. 1 hour and 1.5 hours after the administration of dextrorotatory ergot alkaloids, adrenalin was again administered intravenously (0.02 mg/kg) and the presence as well as duration of arrhythmias was ascertained.

| SMILES | heart action (bradycardia) [1] | vasoconstrictory effect [2] | long-duration hypertension (effect in words) [3] | increase of the strength of heart contraction (heart in situ; 250 mcg/kg intravenously) | increase of the strength of heart contraction (heart in situ; 300 mcg/kg intravenously) | effect on systolic blood pressure (in words) [4] | effect on isolated heart (in words) [5] | duration of long-duration hypertension ([3]; acid addition salts, 1.5 mg/kg of body weight) | vasoconstrictory effect [3] | effect on the strength of heart contraction (in words) [5] | mydriatic effect (in words) [6] | effect on duration of arrhythmia (in words) [7] |
| --- | --- | --- | --- | --- | --- | --- | --- | --- | --- | --- | --- | --- |
| CN1C[C@H](C(=O)N[C@]2(C)O[C@@]3(O)[C@@H]4CCCN4C(=O)[C@H](Cc4ccccc4)N3C2=O)C[C@@H]2c3cccc4[nH]cc(c34)C[C@H]21 [dihydroergotamine] | bradycardia | vasoconstrictory effect |  |  |  |  |  |  |  |  |  |  |
| CC(C)[C@@]1(NC(=O)[C@H]2C=C3c4cccc5[nH]cc(c45)C[C@H]3N(C)C2)O[C@@]2(O)[C@@H]3CCCN3C(=O)[C@H](Cc3ccccc3)N2C1=O [ergocristinine] |  |  | no effect | 15% | 30% |  |  |  |  |  |  |  |
| CN1C[C@@H](C(=O)N[C@]2(C)O[C@@]3(O)[C@@H]4CCCN4C(=O)[C@H](Cc4ccccc4)N3C2=O)C=C2c3cccc4[nH]cc(c34)C[C@H]21 [ergotaminine] |  |  |  | 15% | 30% | strongest effect | qualitatively similar to that of ergotamine, ergosine and dihydroergotamine | more than 60 minutes | vasoconstrictory effect |  |  |  |
| CC(C)C[C@H]1C(=O)N2CCC[C@H]2[C@]2(O)O[C@@](C)(NC(=O)[C@H]3C=C4c5cccc6[nH]cc(c56)C[C@H]4N(C)C3)C(=O)N12 [ergosinine] |  |  | The same effect | 15% | 30% | strongest effect | qualitatively similar to that of ergotamine, ergosine and dihydroergotamine |  | vasoconstrictory effect | quantitatively greater effect on the strength of heart contraction | strongest mydriatic effect | most efficiently shortened |
| CN1C[C@H](C(=O)N[C@]2(C)O[C@@]3(O)[C@@H]4CCCN4C(=O)[C@H](Cc4ccccc4)N3C2=O)C=C2c3cccc4[nH]cc(c34)C[C@H]21 [ergotamine] | bradycardia |  |  |  |  |  |  |  |  |  |  |  |
